From patent EP1144369B1 (Wyeth Holdings Corporation, priority 1999, dated 2000)

Key:
THP-1 cells = test: THP-1 soluble protein assay (LPS-stimulated human monocytic THP-1 cells); assay type: cell-based; settings: Homo sapiens, LPS-stimulated THP-1 cells, read-out: % Inhib. @ 3µM THP
Excerpt: Mitogenic stimulation of THP-1 cells cause differentiation into macrophage like cells with concomitant secretion of tumor necrosis factor (TNF-a) and TNF receptor (TNF-R p75/80 and TNF-R p55/60) and Interleukin-8 (IL-8), among other proteins. In addition, non-stimulated THP-1 cells shed both the p75/80 and the p55/60 receptors over time. The release of membrane bound TNF-α and possibly TNF-R p75/80 and TNF-R p55/60, but not IL-8, is mediated by an enzyme called TNF-a converting enzyme or TACE.
THP-1 cells (from ATCC) are a human monocytic cell line which were obtained from the peripheral blood of a person with acute monocytic leukemia. They can be grown in culture and differentiated into macrophage like cells by stimulation with mitogens.
Each vial of cells are cultured for about two weeks prior to being used for an assay and then are used for only 4 to 6 weeks to screen compounds.
Cell exposure to DMSO was limited to 0.1 % final concentration. […] Compounds can be evaluated for their effect on basal (non-stimulated) shedding of the receptors by replacing the LPS with […] of THP-1 media. Plates are placed into an incubator set at 5% CO2 and at 37°C. After 4 hours of incubation, […] of tissue culture supernatant (TCS) is removed for use in an TNF-a ELISA. Following 24 hours of incubation, […] of TCS is removed and used for analysis in TNF-R p75/80, TNF-R p55/60 and IL-8 ELISAs.
In addition, at the 24 hours timepoint, and the cells for each treatment group are collected by resuspension in 500 µl/well of THP-1 media and transferred into a FACS tube. […] The samples are run on a Becton Dickinson FaxCaliber FLOW cytometry machine and the amount of dye taken up by each cell is measured in the high red wavelength (FL3). Only cells with compromised membranes (dead or dying) can take up PI. The percent of live cells is calculated by the number of cells not stained with PI, divided by the total number of cells in the sample. The viability values calculated for the drug treated groups were compared to the viability value calculated for the vehicle treated mitogen stimulated group ("vehicle positive control") to determine the "percent change from control". This "percent change from control" value is an indicator of drug toxicity.
The quantity of soluble TNF-a, TNF-R p75/80 and TNF-R p55/60 and IL-8 in the TCS of the THP-1 cell cultures are obtained with commercially available ELISAs from R&D Systems, by extrapolation from a standard curve generated with kit standards. The number of cells that either take up or exclude PI are measured by the FLOW cytometry machine and visualized by histograms using commercially available Cytologic software for each treatment group including all controls.
Biological variability in the magnitude of the response of THP-1 cell cultures requires that experiments be compared on the basis of percent change from "vehicle positive control" for each drug concentration. Percent change in each soluble protein evaluated from the "vehicle positive control" was calculated for each compound concentration with the following formula: % Change =(pg/ml(compound) - pg/ml (veh pos control))/(pg/ml (veh pos control) - pg/ml(veh neg control))x 100 [formula]
For the soluble protein (TNF-a, p75/80, p55/60, IL-8) studies under stimulated conditions, the mean pg/ml of duplicate wells were determined and the results expressed as percent change from "vehicle positive control". For the soluble protein (p75/80 and p55/60 receptors) studies under non-stimulated conditions, the mean pg/ml of duplicate wells were determined and the results expressed as percent change from "vehicle positive control" utilizing the following formula: % Change =(pg/ml (compound neg control) - pg/ml (veh neg control)/(pg/ml (veh neg control))X 100 [formula]
IC50 values for each compound are calculated by non-linear regression analysis using customized software utilizing the JUMP statistical package.

[1] = molecular target: TNF-α converting enzyme (TACE) (Homo sapiens, UniProt P78536); test: TACE inhibition (fluorescent peptidyl substrate); assay type: biochemical; settings: read-out: IC50 (nM) or % Inhibition (µM) TACE
Procedure: Using 96-well black microtiter plates, each well receives a solution composed of 10 µL TACE (final concentration 1µg/mL), 70µL Tris buffer, pH 7.4 containing 10% glycerol (final concentration 10 mM), and 10 µL of test compound solution in DMSO (final concentration 1µM, DMSO concentration <1%) and incubated for 10 minutes at room temperature. The reaction is initiated by addition of a fluorescent peptidyl substrate (final concentration 100 µM) to each well and then shaking on a shaker for 5 sec.
The reaction is read (excitation 340 nm, emission 420 nm) for 10 min. and the increase in fluorescence over time is plotted as a linear line. The slope of the line is calculated and represents the reaction rate.
(§1) The linearity of the reaction rate is confirmed (r^2 >0.85). The mean (x±sem) of the control rate is calculated and compared for statistical significance (p<0.05) with drug-treated rates using Dunnett's multiple comparison test.

MMP-13 = MMP-13 (Homo sapiens, UniProt P45452); test: MMP-13 inhibition (thiopeptide or fluorescent peptide substrate); assay type: biochemical
Procedure: (§2) The enzyme activity is measured by the rate of the color increase. The thiopeptide substrate is made up fresh as a 20 mM stock in 100% DMSO and the DTNB is dissolved in 100% DMSO as a 100 mM stock and stored in the dark at room temperature. Both the substrate and DTNB are diluted together to 1 mM with substrate buffer (50 mM HEPES pH 7.5, 5 mM CaCl2) before use. The stock of enzyme is diluted with buffer (50 mM HEPES, pH 7.5, 5 mM CaCl2, 0.02% Brij) to the desired final concentration.
(§3) Alternatively, a fluorescent peptide substrate is used. In this test procedure, the peptide substrate contains a fluorescent group and a quenching group. Upon cleavage of the substrate by an MMP, the fluorescence that is generated is quantitated on the fluorescence plate reader. The assay is run in HCBC assay buffer (50mM HEPES, pH 7.0, 5 mM Ca^+2, 0.02% Brij, 0.5% Cysteine), with human recombinant MMP-1, MMP-9, or MMP-13. The substrate is dissolved in methanol and stored frozen in 1 mM aliquots. For the assay, substrate and enzymes are diluted in HCBC buffer to the desired concentrations. Compounds are added to the 96 well plate containing enzyme and the reaction is started by the addition of substrate.
as §1, with “For either the thiopeptide or fluorescent peptide test procedures, the slope of the line is calculated and represents the reaction rate. The linearity” for “The linearity”

MMP-1 = molecular target: T1, MMP-1 (Homo sapiens, UniProt P03956); test: MMP-1 inhibition (thiopeptide or fluorescent peptide substrate); assay type: biochemical; settings: for inhibition at 10 µM: read-out: IC50 (nM) or % Inhibition (µM) MMP-1; for IC50: plain number = IC50
T1 sequence (P03956 100-469): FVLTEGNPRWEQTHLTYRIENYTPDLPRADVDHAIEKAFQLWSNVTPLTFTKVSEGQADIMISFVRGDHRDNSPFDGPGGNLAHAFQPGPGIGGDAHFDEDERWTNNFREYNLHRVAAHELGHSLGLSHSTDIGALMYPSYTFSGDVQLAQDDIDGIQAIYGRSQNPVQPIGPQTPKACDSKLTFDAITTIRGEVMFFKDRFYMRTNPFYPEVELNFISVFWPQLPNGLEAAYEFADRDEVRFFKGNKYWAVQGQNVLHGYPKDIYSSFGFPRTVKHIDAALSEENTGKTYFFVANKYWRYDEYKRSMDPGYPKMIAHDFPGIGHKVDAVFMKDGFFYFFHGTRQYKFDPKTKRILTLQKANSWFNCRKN
Procedure: as §2, §3
as §1, with “For either the thiopeptide or fluorescent peptide test procedures, the slope of the line is calculated and represents the reaction rate. The linearity” for “The linearity”

MMP-9 = MMP-9 (Homo sapiens, UniProt P14780); test: MMP-9 inhibition (thiopeptide or fluorescent peptide substrate); assay type: biochemical
Procedure: as §2, §3
as §1, with “For either the thiopeptide or fluorescent peptide test procedures, the slope of the line is calculated and represents the reaction rate. The linearity” for “The linearity”

Sequence of MMP-9 (P14780 94-707): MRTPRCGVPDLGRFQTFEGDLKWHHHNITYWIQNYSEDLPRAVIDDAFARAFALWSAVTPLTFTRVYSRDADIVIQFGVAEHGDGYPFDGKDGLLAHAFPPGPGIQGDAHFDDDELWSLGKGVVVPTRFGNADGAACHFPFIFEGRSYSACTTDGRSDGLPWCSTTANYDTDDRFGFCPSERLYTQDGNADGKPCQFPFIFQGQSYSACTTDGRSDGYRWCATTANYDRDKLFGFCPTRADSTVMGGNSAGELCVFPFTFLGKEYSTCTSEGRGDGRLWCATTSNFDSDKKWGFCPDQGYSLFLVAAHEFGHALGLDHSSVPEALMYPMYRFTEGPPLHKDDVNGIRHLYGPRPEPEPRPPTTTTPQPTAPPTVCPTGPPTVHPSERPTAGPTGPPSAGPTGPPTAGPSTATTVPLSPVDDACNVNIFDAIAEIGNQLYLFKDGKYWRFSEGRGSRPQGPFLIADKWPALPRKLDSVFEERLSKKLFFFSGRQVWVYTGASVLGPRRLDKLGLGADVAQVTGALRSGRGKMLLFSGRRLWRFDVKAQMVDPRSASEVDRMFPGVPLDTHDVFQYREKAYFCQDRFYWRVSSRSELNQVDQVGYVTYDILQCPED
Sequence of TNF-α converting enzyme (TACE) (P78536 215-824, species assumed): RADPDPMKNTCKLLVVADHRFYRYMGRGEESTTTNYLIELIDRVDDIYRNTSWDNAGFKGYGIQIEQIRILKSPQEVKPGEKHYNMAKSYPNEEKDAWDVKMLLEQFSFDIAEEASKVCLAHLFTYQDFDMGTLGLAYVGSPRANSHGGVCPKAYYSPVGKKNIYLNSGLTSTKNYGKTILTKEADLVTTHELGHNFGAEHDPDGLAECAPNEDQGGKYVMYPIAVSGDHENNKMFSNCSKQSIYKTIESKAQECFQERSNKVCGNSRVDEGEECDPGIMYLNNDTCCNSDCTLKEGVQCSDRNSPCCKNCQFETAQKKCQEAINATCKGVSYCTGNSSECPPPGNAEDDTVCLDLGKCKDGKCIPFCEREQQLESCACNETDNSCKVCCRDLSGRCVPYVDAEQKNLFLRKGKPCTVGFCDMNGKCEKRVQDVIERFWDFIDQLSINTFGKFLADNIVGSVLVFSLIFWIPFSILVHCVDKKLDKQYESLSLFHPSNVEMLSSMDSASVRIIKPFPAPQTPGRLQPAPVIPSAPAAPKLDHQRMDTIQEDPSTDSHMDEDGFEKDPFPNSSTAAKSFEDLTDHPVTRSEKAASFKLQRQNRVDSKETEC

SMILES | inhibition at 3 µM (THP-1 cells) | IC50 [1] | IC50 (MMP-13) | inhibition at 10 µM (MMP-1) | IC50 (MMP-9) | IC50 (MMP-1)
Cc1cc(Br)cc(C(=O)NO)c1N(C)S(=O)(=O)c1ccc(OCC#CCNC2CCC2)cc1 [Example 31, 5-Bromo-2-{[4-(4-cyclobutylamino-but-2-ynyloxy)-benzenesulfonyl]-methyl-amino}-N-hydroxy-3-methyl-benzamide] | 6% | 44 nM | 724 nM | 19% | 301 nM | –
CNCC#CCOc1ccc(S(=O)(=O)N(C)c2c(C)cc(Br)cc2C(=O)NO)cc1 [Example 32, 5-Bromo-N-hydroxy-3-methyl-2-{methyl-[4-(4-methylamino-but-2-ynyloxy)-benzenesulfonyl]-amino}-benzamide] | 15% | 58 nM | 255 nM | 26% | 643 nM | –
CCC#CCOc1ccc(S(=O)(=O)N(C)c2c(C)cc(Br)cc2C(=O)NO)cc1 [Example 55, 5-Bromo-N-hydroxy-3-methyl-2-[methyl-(4-pent-2-ynyloxy-benzenesulfonyl)-amino]-benzamide] | 48% | 12 nM | 289 nM | – | 800 nM | 1230 nM
C#CC(C)Oc1ccc(S(=O)(=O)N(C)c2c(C)cc(Br)cc2C(=O)NO)cc1 (centres unmarked) [Example 79, 5-Bromo-N-hydroxy-3-methyl-2-{methyl-[4-(1-methyl-prop-2-ynyloxy)-benzenesulfonyl]-amino}-benzamide] | 9% | 122 nM | 433 nM | – | 455 nM | 1530 nM
COCC#CCOc1ccc(S(=O)(=O)N(C)c2c(C)cc(Br)cc2C(=O)NO)cc1 [Example 58, 5-Bromo-N-hydroxy-2-{[4-(4-methoxy-but-2-ynyloxy)-benzenesulfonyl]-methyl-amino}-3-methyl-benzamide] | 46% | 11 nM | 233 nM | – | 387 nM | 7800 nM
Cc1cc(Br)cc(C(=O)NO)c1N(C)S(=O)(=O)c1ccc(OCC#Cc2ccccc2)cc1 [Example 59, 5-Bromo-N-hydroxy-3-methyl-2-{methyl-[4-(3-phenyl-prop-2-ynyloxy)-benzenesulfonyl]-amino}-benzamide] | 20% | 66 nM | 321 nM | – | 857 nM | –
C#CCOc1ccc(S(=O)(=O)N(C)c2c(C)cc(Br)cc2C(=O)NO)cc1 [Example 53, 5-Bromo-N-hydroxy-3-methyl-2-[methyl-(4-prop-2-ynyloxy-benzenesulfonyl)-amino]-benzamide] | 55% | 11 nM | 52 nM | – | 15 nM | 113 nM
Cc1cc(Br)cc(C(=O)NO)c1N(C)S(=O)(=O)c1ccc(OCC#CCN2CCCC2)cc1 [Example 65, 5-Bromo-N-hydroxy-3-methyl-2-{methyl-[4-(4-pyrrolidin-1-yl-but-2-ynyloxy)-benzenesulfonyl]-amino}-benzamide] | 12% | 148 nM | 537 nM | – | 602 nM | 3350 nM
CC#CCOc1ccc(S(=O)(=O)N(Cc2ccccc2)c2c(C)cc(C)cc2C(=O)NO)cc1 [Example 64, 2-[Benzyl-(4-but-2-ynyloxy-benzenesulfonyl)-amino]-N-hydroxy-3,5-dimethyl-benzamide] | 48% | 105 nM | 312 nM | – | 830 nM | 1190 nM
COc1ccc(S(=O)(=O)N(C)c2c(C)cc(Br)cc2C(=O)NO)cc1 [Example 36, 5-Bromo-N-hydroxy-2-[(4-methoxy-benzenesulfonyl)-methyl-amino]-3-methyl-benzamide] | 14% | – | 21 nM | – | 11 nM | –
CCCCC#CCOc1ccc(S(=O)(=O)N(C)c2c(C)cc(Br)cc2C(=O)NO)cc1 [Example 56, 5-Bromo-2-[(4-hept-2-ynyloxy-benzenesulfonyl)-methyl-amino]-N-hydroxy-3-methyl-benzamide] | 16% | – | 701 nM | 53% | 389 nM | –
CC#CCOc1ccc(S(=O)(=O)N(C)c2c(C)cc(Br)cc2C(=O)NO)cc1 [Example 54, 5-Bromo-2-[(4-But-2-ynyloxy-benzenesulfonyl)-methyl-amino]-N-hydroxy-3-methyl-benzamide] | 84% | – | 154 nM | – | 304 nM | 1620 nM
Cc1cc(Br)cc(C(=O)NO)c1N(C)S(=O)(=O)c1ccc(OCC#CCO)cc1 [Example 70, 5-Bromo-N-hydroxy-2-{[4-(4-hydroxy-but-2-ynyloxy)-benzenesulfonyl]-methyl-amino}-3-methyl-benzamide] | 88% | – | 83 nM | – | 477 nM | 3200 nM
